The values that follow come from patent US12570631B2, “Substituted N-(4-(pyrimidin and pyridin-4-yl)benzylcarboxamides and its use for treating disorders responsive to inhibition of Btk” (BIOGEN MA INC., priority 2019, dated 2026).

One experiment has as its target BTK (Homo sapiens (Human), UniProt Q06187). The experiment in a line: In vitro BTK kinase assay: Btk-PolyGAT-LS assay. The following applies: ATP 10 μM, polyGAT 100 nM, BTK 0.25 nM, 30 minutes. Format: biochemical.
Experiment [1] relates to CD69 expression on CD19+ B cells in human whole blood. The experiment can be described thus: In vitro whole blood CD69 assay. Conditions: B-cell. Format: cell-based.
The mark [2] stands for this setting: Whole Blood CD69 inhibition, human heparinized blood, anti-human IgD stimulation, CD19+ B cells expressing CD69, read-out: IC50.

SMILES strings stand for the structures. Read-outs that look alike come from different tables or passages of the source.

Chain of BTK (Q06187 whole entry): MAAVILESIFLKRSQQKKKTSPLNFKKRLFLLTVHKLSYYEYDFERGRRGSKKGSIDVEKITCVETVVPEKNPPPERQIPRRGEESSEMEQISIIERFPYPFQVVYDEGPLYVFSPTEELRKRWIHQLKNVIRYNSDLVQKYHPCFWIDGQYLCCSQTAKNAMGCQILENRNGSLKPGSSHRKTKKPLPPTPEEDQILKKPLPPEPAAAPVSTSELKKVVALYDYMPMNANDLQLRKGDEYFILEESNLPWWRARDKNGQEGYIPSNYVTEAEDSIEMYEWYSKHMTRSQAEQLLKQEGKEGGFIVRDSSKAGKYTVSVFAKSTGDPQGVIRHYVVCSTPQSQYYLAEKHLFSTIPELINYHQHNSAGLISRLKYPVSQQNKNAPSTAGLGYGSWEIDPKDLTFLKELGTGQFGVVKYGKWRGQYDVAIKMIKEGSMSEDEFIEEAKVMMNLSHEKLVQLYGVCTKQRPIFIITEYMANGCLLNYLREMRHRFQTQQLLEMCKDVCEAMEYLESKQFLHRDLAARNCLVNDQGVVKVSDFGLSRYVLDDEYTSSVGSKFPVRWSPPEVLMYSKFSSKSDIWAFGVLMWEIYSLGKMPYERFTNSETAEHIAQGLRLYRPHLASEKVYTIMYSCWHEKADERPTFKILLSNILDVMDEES

For the molecule `C=CC(=O)N(C)CCOc1cnccc1-c1ccc(CNC(=O)c2cc(C(C)(C)C)on2)c(C)c1` [Example 16, 5-(tert-butyl)-N-(2-methyl-4-(3-(2-(N-methylacrylamido)ethoxy)pyridin-4-yl)benzyl)isoxazole-3-carboxamide], the IC50 on BTK was < 1 nM.

Molecule `C=CC(=O)N(C)CCOc1cnccc1-c1ccc(CNC(=O)c2ccn(C(C)(C)C)n2)c(Cl)c1F` [Example 15, 1-(tert-butyl)-N-(2-chloro-3-fluoro-4-(3-(2-(N-methylacrylamido)ethoxy)pyridin-4-yl)benzyl)-1H-pyrazole-3-carboxamide] had an IC50 on BTK of 1 to 10 nM.

`C=CC(=O)N(C)CC(=O)Nc1cncnc1-c1ccc(CNC(=O)c2cn(C(C)(C)C)nn2)c(C)c1` [Example 29, 1-(tert-butyl)-N-(2-methyl-4-(5-(2-(N-methylacrylamido)acetamido)pyrimidin-4-yl)benzyl)-1H-1,2,3-triazole-4-carboxamide]: the IC50 at BTK was < 1 nM.

Regarding `Cc1cc(-c2ccncc2OC2CN(C(=O)/C=C/CN(C)C)C2)ccc1CNC(=O)c1cn(C(C)(C)C)nn1` [Example 40, (E)-1-(tert-butyl)-N-(4-(3-((1-(4-(dimethylamino)but-2-enoyl)azetidin-3-yl)oxy)pyridin-4-yl)-2-methylbenzyl)-1H-1,2,3-triazole-4-carboxamide], the IC50 was > 10 nM at BTK and > 1000 nM in experiment [1] (setting [2]).

Consider `C=CC(=O)N(C)CCOc1c(N)ncnc1-c1ccc(CNC(=O)c2cnn(C(C)(C)C)c2)c(C)c1` [Example 10, N-(4-(6-amino-5-(2-(N-methylacrylamido)ethoxy)pyrimidin-4-yl)-2-methylbenzyl)-1-(tert-butyl)-1H-pyrazole-4-carboxamide], for which the IC50 on BTK was < 1 nM; in experiment [1] (setting [2]) it was < 100 nM.

`C=CC(=O)N(C)CCOc1c(N)ncnc1-c1ccc(CN2Cc3cc(C4CC4)sc3C2=O)c(C)c1` [Example 11, N-(2-((4-amino-6-(4-((2-cyclopropyl-6-oxo-4,6-dihydro-5H-thieno[2,3-c]pyrrol-5-yl)methyl)-3-methylphenyl)pyrimidin-5-yl)oxy)ethyl)-N-methylacrylamide]: the IC50 against BTK is < 1 nM; in experiment [1] (setting [2]), 100 to 1000 nM.

Consider `C=CC(=O)N1CCC(COc2cnccc2-c2ccc(CNC(=O)c3cn(C(C)(C)C)nn3)c(C)c2F)C1` (stereo not shown) [Example 51, N-(4-(3-((1-acryloylpyrrolidin-3-yl)methoxy)pyridin-4-yl)-3-fluoro-2-methylbenzyl)-1-(tert-butyl)-1H-1,2,3-triazole-4-carboxamide], for which the half-inhibitory concentration (IC50) at BTK was < 1 nM.

Consider `C=CC(=O)N1CCCC(Oc2cncnc2-c2ccc(CNC(=O)c3cn(C(C)(C)C)nn3)c(C)c2)C1` (stereo not shown) [Example 39, N-(4-(5-((1-acryloylpiperidin-3-yl)oxy)pyrimidin-4-yl)-2-methylbenzyl)-1-(tert-butyl)-1H-1,2,3-triazole-4-carboxamide], for which the IC50 was > 10 nM against BTK and > 1000 nM in experiment [1] (setting [2]).

Turning to `C=CC(=O)N1CC(Oc2cnccc2-c2ccc(CNC(=O)c3cn(C(C)(C)C)nn3)c(C)c2)C1` [Example 33, N-(4-(3-((1-acryloylazetidin-3-yl)oxy)pyridin-4-yl)-2-methylbenzyl)-1-(tert-butyl)-1H-1,2,3-triazole-4-carboxamide], the results for the IC50 (at BTK; in experiment [1] (Homo sapiens)) were 1 to 10 nM and > 1000 nM, respectively.

For the molecule `C=CC(=O)N1CCCC1COc1cnccc1-c1ccc(CNC(=O)c2cn(C(C)(C)C)nn2)c(C)c1F` (stereo not shown) [Example 49, N-(4-(3-((1-acryloylpyrrolidin-2-yl)methoxy)pyridin-4-yl)-3-fluoro-2-methylbenzyl)-1-(tert-butyl)-1H-1,2,3-triazole-4-carboxamide], the IC50 on BTK is 1 to 10 nM; in experiment [1] (setting [2]), > 1000 nM.

Take `C=CC(=O)N(C)CCOc1cnccc1-c1ccc(CNC(=O)c2noc(C(C)(C)C)n2)c(C(F)(F)F)c1` [Example 14, 5-(tert-butyl)-N-(4-(3-(2-(N-methylacrylamido)ethoxy)pyridin-4-yl)-2-(trifluoromethyl)benzyl)-1,2,4-oxadiazole-3-carboxamide]: at BTK, the IC50 is < 1 nM.

Regarding `C=CC(=O)N1CCCC[C@H]1C(=O)Nc1cnccc1-c1ccc(CNC(=O)c2noc(C(C)(C)C)n2)c(C)c1` [Example 32, (S)-N-(4-(3-(1-acryloylpiperidine-2-carboxamido)pyridin-4-yl)-2-methylbenzyl)-5-(tert-butyl)-1,2,4-oxadiazole-3-carboxamide], the results for the IC50 (at BTK; in experiment [1] (setting [2])) were < 1 nM and < 100 nM, respectively.

Consider `C=CC(=O)N(C)CCOc1cnccc1-c1ccc(CN2CCc3c(cnn3C(C)(C)C)C2=O)c(C)c1` [Example 12, N-(2-((4-(4-((1-(tert-butyl)-4-oxo-1,4,6,7-tetrahydro-5H-pyrazolo[4,3-c]pyridin-5-yl)methyl)-3-methylphenyl)pyridin-3-yl)oxy)ethyl)-N-methylacrylamide], for which the 50% inhibitory concentration (IC50) against BTK is < 1 nM; in experiment [1] (setting [2]), 100 to 1000 nM.

`C=CC(=O)N(C)CCOc1cnccc1-c1ccc(CNC(=O)c2noc(C(C)(C)C)n2)cc1F` [Example 13, 5-(tert-butyl)-N-(3-fluoro-4-(3-(2-(N-methylacrylamido)ethoxy)pyridin-4-yl)benzyl)-1,2,4-oxadiazole-3-carboxamide]: the half-inhibitory concentration (IC50) against BTK was < 1 nM.

In the case of `C=CC(=O)N(C)CCOc1c(N)ncnc1-c1ccc(CNC(=O)c2noc(C(C)(C)C)n2)c(C)c1` [Example 2, N-(4-(6-amino-5-(2-(N-methylacrylamido)ethoxy)pyrimidin-4-yl)-2-methylbenzyl)-5-(tert-butyl)-1,2,4-oxadiazole-3-carboxamide], the IC50 against BTK is < 1 nM; in experiment [1] (Homo sapiens), < 100 nM.

On to `Cc1cc(-c2ccncc2OC2CCN(C(=O)/C=C/CN(C)C)C2)ccc1CNC(=O)c1cn(C(C)(C)C)nn1` (stereo not shown) [Example 41, (E)-1-(tert-butyl)-N-(4-(3-((1-(4-(dimethylamino)but-2-enoyl)pyrrolidin-3-yl)oxy)pyridin-4-yl)-2-methylbenzyl)-1H-1,2,3-triazole-4-carboxamide], for which the IC50 is > 10 nM at BTK and > 1000 nM in experiment [1] (setting [2]).

Regarding `C=CC(=O)N1CC[C@@H](Oc2cnccc2-c2ccc(CNC(=O)c3cn(C(C)(C)C)nn3)c(C)c2)C1` (single isomer, unassigned) [Example 35], the 50% inhibitory concentration (IC50) is > 10 nM at BTK and > 1000 nM in experiment [1] (setting [2]).

With `C=CS(=O)(=O)N1CCCC1COc1cnccc1-c1ccc(CNC(=O)c2cn(C(C)(C)C)nn2)c(C)c1F` (stereo not shown) [Example 50, 1-(tert-butyl)-N-(3-fluoro-2-methyl-4-(3-((1-(vinylsulfonyl)pyrrolidin-2-yl)methoxy)pyridin-4-yl)benzyl)-1H-1,2,3-triazole-4-carboxamide], the IC50 against BTK is < 1 nM; in experiment [1] (setting [2]), > 1000 nM.

In the case of `C=CC(=O)N(C)CCOc1cnccc1-c1ccc(CNC(=O)c2noc(C(C)(C)C)n2)c(C)c1` [Example 4, 5-(tert-butyl)-N-(2-methyl-4-(3-(2-(N-methylacrylamido)ethoxy)pyridin-4-yl)benzyl)-1,2,4-oxadiazole-3-carboxamide], the values for the half-inhibitory concentration (IC50) (against BTK; in experiment [1] (setting [2])) were < 1 nM and < 100 nM, respectively.

Take `C=CC(=O)N(C)CCOc1c(N)ncnc1-c1ccc(CNC(=O)c2cn(C(C)(C)C)nn2)c(C)c1` [Example 8, N-(4-(6-amino-5-(2-(N-methylacrylamido)ethoxy)pyrimidin-4-yl)-2-methylbenzyl)-1-(tert-butyl)-1H-1,2,3-triazole-4-carboxamide]: the IC50 was < 1 nM at BTK and < 100 nM in experiment [1] (setting [2]).

In the case of `C=CC(=O)N(C)CCOc1c(N)ncnc1-c1ccc(CNC(=O)c2nc(C(C)(C)C)no2)c(C)c1` [Example 7, N-(4-(6-amino-5-(2-(N-methylacrylamido)ethoxy)pyrimidin-4-yl)-2-methylbenzyl)-3-(tert-butyl)-1,2,4-oxadiazole-5-carboxamide], the IC50 on BTK is < 1 nM; in experiment [1] (setting [2]), < 100 nM.

`C#CC(=O)N1CCCC1COc1cnccc1-c1ccc(CNC(=O)c2cn(C(C)(C)C)nn2)c(C)c1F` (stereo not shown) [Example 48, 1-(tert-butyl)-N-(3-fluoro-2-methyl-4-(3-((1-propioloylpyrrolidin-2-yl)methoxy)pyridin-4-yl)benzyl)-1H-1,2,3-triazole-4-carboxamide] displayed an IC50 at BTK of 1 to 10 nM.

On to `C=CC(=O)N(C)CCOc1cnccc1-c1ccc(CNC(=O)c2cc(C(C)(C)C)on2)c(F)c1F` [Example 17, 5-(tert-butyl)-N-(2,3-difluoro-4-(3-(2-(N-methylacrylamido)ethoxy)pyridin-4-yl)benzyl)isoxazole-3-carboxamide], for which the concentration for half-maximal inhibition (IC50) on BTK is < 1 nM.

Turning to `C=CC(=O)N1CCC(Oc2cnccc2-c2ccc(CNC(=O)c3cn(C(C)(C)C)nn3)c(C)c2)C1` (stereo not shown) [Example 34, N-(4-(3-((1-acryloylpyrrolidin-3-yl)oxy)pyridin-4-yl)-2-methylbenzyl)-1-(tert-butyl)-1H-1,2,3-triazole-4-carboxamide], at BTK, the IC50 was > 10 nM.

Take `C#CC(=O)N1CCC(Oc2cnccc2-c2ccc(CNC(=O)c3cn(C(C)(C)C)nn3)c(C)c2)CC1` [Example 44, 1-(tert-butyl)-N-(2-methyl-4-(3-((1-propioloylpiperidin-4-yl)oxy)pyridin-4-yl)benzyl)-1H-1,2,3-triazole-4-carboxamide]: the 50% inhibitory concentration (IC50) against BTK was < 1 nM; in experiment [1] (setting [2]), > 1000 nM.

`C=CC(=O)N1CC[C@H]1COc1cnccc1-c1ccc(CNC(=O)c2ccc(C(F)(F)F)nc2)c(C)c1` [Example 52, (S)-N-(4-(3-((1-acryloylazetidin-2-yl)methoxy)pyridin-4-yl)-2-methylbenzyl)-6-(trifluoromethyl)nicotinamide]: the IC50 at BTK was > 10 nM.

Turning to `C=CC(=O)NCC(=O)Nc1cncnc1-c1ccc(CNC(=O)c2cn(C(C)(C)C)nn2)c(C)c1` [Example 30, N-(4-(5-(2-acrylamidoacetamido)pyrimidin-4-yl)-2-methylbenzyl)-1-(tert-butyl)-1H-1,2,3-triazole-4-carboxamide], the IC50 on BTK lay in the range of 1 to 10 nM.

As a reminder, the IC50 is the concentration that gives 50% inhibition.
